In patent publication US10352935B2, “Tumor cell-derived microvesicles” (The Hospital for Sick Children, priority 2007, dated 2019):

Tests used:
[1] = system: Erk1/2 phosphorylation in U373 cells; assay: Microvesicle transfer assay, Erk1/2 phosphorylation in U373 acceptor cells; type: cell-based, human; details: microvesicles preincubated with agent, 24 hours (FIG. 3A, 3B)
Description: (§1) U373 (acceptor) cells are treated with microvesicles for 24 hours and a single-cell suspension is analyzed by flow cytometry or fluorescent microscopy for expression of EGFRvIII or GFP. […] The expression of microvesicle associated molecules (EGFRvIII, TF), and expression of total and activated MAPK and Akt as well as other changes are assayed by immunoblot (BcIxL, p27/Kip1), ELISA (VEGF, R&D Systems), or promoter activity assays (VEGF), as described elsewhere (Lopez-Ocejo et al. 2000, Oncogene, 40:4611-4620): For soft agar colony formation assays single cell suspensions are prepared in 0.3% agarose from equal numbers of cells pretreated with microvesicles or control media. Cultures are established in plates precoated with 0.5% agarose and all colonies containing more than 4 cells are counted.

[2] = system: VEGF production by U373 cells; assay: Microvesicle transfer assay, VEGF production by U373 cells (ELISA); type: cell-based, human; details: microvesicles preincubated with CI-1033 (FIG. 4A)
Description: as §1

U373vIII tumours = assay: Growth of U373vIII subcutaneous tumours in SCID mice under daily CI-1033; type: in vivo
From the text: U373 (human astrocytoma) cells, their stable variant U373vIII expressing Tet-off regulated EGFRvIII or EGFRvIII fused at C-terminus to green fluorescent protein (pEGFPN1) cassette (U373vIII-GFP) and A431 are maintained as described previously (Viloria-Petit et at Am. J. Pathology, 1997, 6:1523-1530; Yu et al., 2005, Blood, 105: 1734-1741) in medium containing microvesicle-depleted fetal bovine serum FBS. HUVEC cells are maintained in EGM-2 (Cambrex Bioscience, Walkesville, Md., USA). Microvesicles are collected from conditioned media or mouse plasma, as previously described (Yu & Rak, J. Thromb. Haemost, 2004, 2:2065-67; Al-Nedawi et al., 2005, Arterioscler. Thromb. Vasc. Biol., 25: 1744-1749). Briefly, media are subjected to two successive centrifugations at 300 g and 12000 g to eliminate cells and debris. Microvesicles are pelleted by ultracentrifugation for 2 hours at 100 000 g and quantified by protein content and analyzed for EGFR or EGFRvIII content. For scanning electron microscopy (SEM) the cells are grown on cover slips, fixed with 2.5% gluteraldehyde, stained with 1% OsO4, covered with gold and visualized using the JEOL 840A instrument. For in vivo analyses tumors are generated by injection of 1-10×10^6 U373vIII or U373 cells into immunodeficient (SCID) mice (Charles River, Canada). […]

A431 tumours = assay: Growth of A431 subcutaneous tumours in mice under daily CI-1033; type: in vivo; details: 20 mg/kg intraperitoneally, 7 days (FIG. 13A)
[3] = system: VEGF promoter activity in U373 cells; assay: Microvesicle transfer assay, VEGF promoter activity in U373 cells; type: cell-based, human; details: microvesicles pretreated with annexin V (FIG. 4B)
Description: as §1

[4] = system: Akt phosphorylation in U373 cells; assay: Microvesicle transfer assay, Akt phosphorylation in U373 acceptor cells; type: cell-based, human; details: microvesicles preincubated with annexin V (FIG. 3C)
Description: as §1

[5] = system: BcIxL and p27/Kip1 expression in U373 cells; assay: Microvesicle transfer assay, BcIxL and p27/Kip1 expression in U373 cells (immunoblot); type: cell-based, human; details: annexin V-mediated blockade of microvesicle uptake
Description: as §1

Molecule	Erk1/2 phosphorylation induced by U373vIII-derived microvesicles [1]	Release of VEGF induced by U373vIII microvesicles [2]	Formation/growth of U373vIII subcutaneous tumors (U373vIII tumours; SCID mice, daily doses of CI-1033 (FIG. 1D))	Tumour response (tumour size) (U373vIII tumours; U373vIII tumours, 20 mg/kg intraperitoneally, daily, 7 days (FIG. 13A))	Tumour response (tumour size) (A431 tumours)	VEGF promoter activity stimulated by EGFRvIII containing microvesicles [3]	Akt phosphorylation induced by U373vIII-derived microvesicles [4]	Decrease in levels of p27/Kip1 caused by EGFRvIII-containing microvesicles [5]	Increase in expression of BcIxL caused by EGFRvIII-containing microvesicles [5]
C=CC(=O)Nc1cc2c(Nc3ccc(F)c(Cl)c3)ncnc2cc1OCCCN1CCOCC1 [CI-1033]	markedly reduced	unable to induce this release of VEGF	susceptible to inhibition	responsive	responsive	–	–	–	–
annexin V: blocks exposed phosphatidylserine residues of microvesicles and thereby their uptake by U373 cells	abrogated	–	–	–	–	abrogated	inhibitable	inhibited	inhibited
